Results as given in patent US4816477A, “Antihypercholesterolemic β-lactones” (Merck & Co., Inc., priority 1987, dated 1989).

Molecular target: T1, HMG-CoA synthase (Rattus norvegicus, UniProt P17425)
T1 construct: The livers from male Charles River CD rats (225-350 g) were homogenized in 0.25 M sucrose; from tissue; host or cells: rat liver (male Charles River CD rats), 100,000×g supernatant, ammonium sulfate precipitate, DEAE-52 fraction
T1 sequence (P17425 1-520): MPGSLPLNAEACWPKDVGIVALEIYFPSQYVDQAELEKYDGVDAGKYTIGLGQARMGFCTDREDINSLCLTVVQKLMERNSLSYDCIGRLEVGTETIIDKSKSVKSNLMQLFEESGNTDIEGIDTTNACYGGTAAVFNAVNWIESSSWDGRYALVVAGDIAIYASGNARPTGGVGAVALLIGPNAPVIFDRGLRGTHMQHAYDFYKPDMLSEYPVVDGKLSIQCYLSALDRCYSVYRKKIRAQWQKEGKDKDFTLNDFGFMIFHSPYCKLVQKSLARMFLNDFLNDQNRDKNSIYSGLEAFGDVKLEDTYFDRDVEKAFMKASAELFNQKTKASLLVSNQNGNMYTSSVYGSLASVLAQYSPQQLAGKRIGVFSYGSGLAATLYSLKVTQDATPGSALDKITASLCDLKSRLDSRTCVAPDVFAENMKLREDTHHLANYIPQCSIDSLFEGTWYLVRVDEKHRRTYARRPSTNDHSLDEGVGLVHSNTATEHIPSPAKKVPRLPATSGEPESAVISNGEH
Assay: HMG-CoA Synthase Inhibition Assay
Type: biochemical
Conditions: for IC50: in vitro, enzyme from rat liver
Description: The intrinsic HMG-CoA synthase inhibition activity of the compounds of this invention is measured by the standard in vitro protocol described below:
The livers from male Charles River CD rats (225-350 g) were homogenized in 0.25 M sucrose which was adjusted with phenylmethylsulfonylfluoride (PMSF) and N-p-tosyl-1-lysine chloromethyl ketone (TLCK) so that the final concentration of each was […], respectively. The homogenate was centrifuged at 15,000×g for 20 minutes, the supernatant filtered through a fine nylon screen to remove most of the fat layer and recentrifuged at 100,000×g for 1 hour. This supernatant was removed and 1 M potassium phosphate, dithiothreitol (DTT) and ethylene glycol-bis(β-aminoethyl ether)-N,N,N',N'-tetraacetic acid (EGTA) added to give a final concentration of 0.1 M (pH 7.2), 0.5 mM and 0.1 mM, respectively. Solid ammonium sulfate was added to 50% saturation to the protein solution, it was centrifuged at 15,000×g and the supernatant discarded. This precipitated protein could be stored at -70° C. for at least one month with very little loss of activity. The ammonium sulfate precipitate was dissolved in an minimal amount of 0.06 M potassium phosphate buffer (pH 7.2) containing 0.5 mM dithiothreitol and 0.1 mM EGTA (referred to as 0.06 M phosphate buffer) and dialyzed overnight against 2 liters of the same buffer to remove the ammonium sulfate and to inactivate HMG-CoA lyase [Clinkenbeard, et al., J. Biol. Chem. 250, 3108-3116(1975)].
The dialyzed extract was added to a column of DEAE-52 (Whatman) which had been equilibrated with 0.06 M phosphate buffer (10 mg of protein to 1 ml bed volume of the resin). The DEAE-cellulose was eluted with 0.06 M phosphate buffer until the optical density at 280 nm was essentially zero. This fraction contained the β-ketoacetyl-CoA thiolase activity. The HMG-CoA synthase was eluted from the column with 0.1 M phosphate buffer (pH 7.2) containing 0.5 mM DTT and 0.1 mM EGTA, and was virtually free of all thiolase activity. The protein was precipitated by the addition of ammonium sulfate to give 50% saturation. This solution was stirred for 10 minutes at 4° C. and the precipitate collected by centrifugation at 15,000 rpm for 10 minutes. The supernatant was discarded and the precipitate dissolved in a minimum of 0.06 M phosphate buffer, pH 7.2 (about 10 ml) and the enzyme stored at -80° C.
HMG-CoA Synthase Inhibition Assay
Enzyme protein (ca. […]) was added to a solution containing 117 mM Tris-HCl (pH 8.0), 11.7 mM MgCl2, 1.17 mM ethylenediaminetetraacetic acid (EDTA), 0.58 mM dithiothreitol, and the indicated concentrations of the test compound (added as a 2 mg/ml solution in dimethylsulfoxide). The incubation took place in a volume of 0.085 ml at 30° in a shaking water bath. After 5 minutes, […] of a solution containing acetoacetyl-CoA and 0.1 μCi of 1-[^14 C]-acetyl-CoA was added to give a final concentrations of 0.1 and 0.4 μM, respectively. The incubation was continued for 10 more minutes and the reaction stopped by the addition of […] of the assay mixture to 0.2 ml of 6N HCl in a glass scintillation vial. The vial was heated for 1 hour at 120° after which time 0.2 ml more of 6N HCl was again added to each vial and the heating continued for another hour. Following this, 1.0 ml of 0.9% saline was added to each vial and finally 10 ml of scintillation liquid. Radioactivity was determined in a Packard Tri-Carb liquid scintillation counter. Percent inhibition is calculated by the formula: [formula] IC50 values were determined by plotting the log of the concentration of the test compound verses the percentage inhibition and fitting a straight line to the resulting data by using the least squares method.

IC50 [nM] | SMILES | other results
2900 | COC(=O)/C=C(C)/C=C(\C)CC(C)CCCCC1OC(=O)C1CC#N (stereo not shown) [R^1=OCH3, R^2=CN, methyl 11-(3-cyanomethyl-4-oxo-2-oxetano)-3,5,7-trimethyl-2,4-undecadienoate] | 
 | COC(=O)/C=C(C)/C=C(\C)CC(C)CCCCC1OC(=O)C1C (stereo not shown) [R^1=OCH3, R^2=H, methyl 11-(3-methyl-4-oxo-2-oxetano)-3,5,7-trimethyl-2,4-undecadienoate] | inhibition at 6 µM (at 6 × 10^-6 M, read-out: percent inhibition): 22.7%; IC25 (concentration giving 22.7 percent inhibition, read-out: IC25 (printed in the IC50 column, in parentheses)): 6000 nM
100 | COC(=O)/C=C(C)/C=C(\C)CC(C)CCCCC1OC(=O)C1CN=[N+]=[N-] (stereo not shown) [R^1=OCH3, R^2=N3, methyl 11-(3-azidomethyl-4-oxo-2-oxetano)-3,5,7-trimethyl-2,4-undecadienoate] | 
10000 | COC(=O)/C=C(C)/C=C(\C)CC(C)CCCCC1OC(=O)C1CSC(C)=O (stereo not shown) [R^1=OCH3, R^2=drawing 3, methyl 11-(3-acetylthiomethyl-4-oxo-2-oxetano)-3,5,7-trimethyl-2,4-undecadienoate] | inhibition at 10 µM (at 10^-5 M, read-out: percent inhibition): 47.9%
1400 | CC(=C\C(=O)O)/C=C(\C)CC(C)CCCCC1OC(=O)C1CBr (stereo not shown) [R^1=OH, R^2=Br, 11-(3-bromomethyl-4-oxo-2-oxetano)-3,5,7-trimethyl-2,4-undecadienoic acid] | 
300 | CC(=C\C(=O)O)/C=C(\C)CC(C)CCCCC1OC(=O)C1CCl (stereo not shown) [R^1=OH, R^2=Cl, 11-(3-Chloromethyl-4-oxo-2-oxetano)-3,5,7-trimethyl-2,4-undecadienoic acid] | 
280 | CC(=C\C(=O)O)/C=C(\C)CC(C)CCCCC1OC(=O)C1CF (stereo not shown) [R^1=OH, R^2=F, 11-(3-fluoromethyl-4-oxo-2-oxetano)-3,5,7,-trimethyl-2,4-undecadienoic acid] | 
100 | CC(=C\C(=O)O)/C=C(\C)CC(C)CCCCC1OC(=O)C1C (stereo not shown) [R^1=OH, R^2=H, 11-(3-methyl-4-oxo-2-oxetano)-3,5,7-trimethyl-2,4-undecadienoic acid] | 
